The values that follow come from patent US10556005B2 (priority 2011, dated 2020).

The subject of data set [1] is HA antigen of influenza virus (strain: A/Solomon). Details: species or system BALB/c mice. As to conditions: mouse, in vivo, sc.
The nature of data set [2]: Observation of administered mice for abnormality / induration at topical area. As to conditions: mice administered with citrulline; compared with induration seen where Alum is administered. The format is in vivo.

Structures are written as SMILES.

On to `NC(=O)NCCCC(N)C(=O)O` (centres unmarked) [citrulline, 2-amino-5-(carbamoylamino)-pentanoic acid], for which, in data set [1], the “adjuvant effect compared with Alum adjuvant (in words)” value is recorded as “same extent as that of Alum adjuvant”. The “abnormality / induration in mice administered” value in data set [2] is “neither abnormality nor induration”.
